Experiment [1] relates to EBOV-GFP (recombinant Ebola Zaire virus expressing green fluorescence protein). Put plainly: microbe, parasite or virus in culture. The format is cell-based. Conditions: Zaire ebolavirus, Vero C1008, 48 h, read-out: EBOV % Inhibition (20 μM).
For experiment [2], the system named is MPXV-GFP (recombinant monkeypox virus expressing GFP, Zaire strain). Put plainly: microbe, parasite or virus in culture. Conditions: Vero C1008, in Primates, 48 h, read-out: Monkey Pox % Inhibition (20 μM). The format is cell-based.
Another experiment relates to EBOV-GFP. Put plainly: microbe, parasite or virus in culture. The format is cell-based, Ebola Zaire virus. Conditions: for IC50: Zaire ebolavirus, Vero C1008, read-out: IC50 (read from graphs of % of control infection).
In experiment [3] the test system is Rift Valley Fever Virus (ZH501 strain). Format: cell-based.
Experiment [4] concerns influenza virus (H1N1 A/Texas strain). The format is cell-based.
In experiment [5] the test system is Lassa virus (Josiah strain). Format: cell-based.
In experiment [6] the test system is cowpox virus (CPXV, egfpCPV virus). On the set-up: species or system mice. Conditions: mouse, in vivo.
A further experiment deals with GFP-EBOV. Format: cell-based, Ebola Zaire virus.

From patent US7999001B2 (priority 2007, dated 2011) come the findings set out here.

“Also recorded” adds a separate entry of the source.

For the molecule `Cc1cc(NCCCN(C)C)c2ccc3c(ccc4c(NCCCN(C)C)cc(C)nc43)c2n1` [NSC 306365, N,N′-bis(3-dimethylaminopropyl)-3,9-dimethylquinolino[8,7-h]quinoline-1,7-diamine], in experiment [1], the inhibition at 20 µM came out at 99%. In addition, in experiment [2], the inhibition at 20 µM was 99%. For the same molecule, in the experiment on EBOV-GFP, the “IC50 toward EBOV (in words)” value is “submicromolar” and the “dose dependent antiviral activity toward EBOV-GFP” value was “dose dependent antiviral activity”. For the same molecule, the “antiviral activity toward RVFV” value in experiment [3] is listed as “showed antiviral activity; also recorded: dose-dependent inhibition; also recorded: dose dependent antiviral activity”. Further, in experiment [4], the “antiviral activity toward influenza virus” value is on record as “showed antiviral activity” and the “inhibition of influenza virus replication” value was “half log; also recorded: inhibit the replication”. Besides, in experiment [5], the “antiviral activity toward LV (Lassa virus)” value (shortened to “antiviral activity toward LV”) is reported as “showed antiviral activity; also recorded: dose dependent inhibition” and the “inhibition of Lassa virus replication” value is “one log; also recorded: inhibit the replication”. In addition, in experiment [6], the “mean time to death” value is “increase in the mean time to death; also recorded: prolongs the mean time to death”.
For `N=C(N)c1ccc2oc(/C=C/c3cc4ccc(C(=N)N)cc4o3)cc2c1` [NSC 294202, 2-[(E)-2-(5-carbamimidoylbenzofuran-2-yl)ethenyl]benzofuran-6-carboximidamide], the inhibition at 20 µM in experiment [1] was determined as 71.2%. Also, in the experiment with EBOV-GFP, the “dose dependent antiviral activity toward EBOV-GFP” value is given as “dose dependent antiviral activity” and the IC50 was around 6 µM. The “antiviral activity toward RVFV” value in experiment [3] is given as “showed antiviral activity”. Also, in experiment [4], the “antiviral activity toward influenza virus” value is on record as “showed antiviral activity” and the “inhibition of influenza virus replication” value is listed as “more than one log; also recorded: inhibit the replication”. Besides, the “antiviral activity toward LV” value in experiment [5] was “showed antiviral activity”.
For `N=C(N)c1ccc2oc(C=Cc3nc4cc(C(=N)N)ccc4[nH]3)cc2c1` [NSC 369723, 2-(2-(5-(amino(imino)methyl)-1-benzofuran-2-yl)vinyl)-1H-benzimidazole-5-carboximidamide], the inhibition at 20 µM in experiment [1] amounted to 94%. For the same molecule, in the experiment with EBOV-GFP, the “dose dependent antiviral activity toward EBOV-GFP” value is reported as “dose dependent antiviral activity” and the IC50 was around 4 µM. For the same molecule, the “antiviral activity toward RVFV” value in experiment [3] is reported as “not”. For the same molecule, the “antiviral activity toward influenza virus” value in experiment [4] was “not”. For the same molecule, in experiment [5], the “antiviral activity toward LV” value is “not”. In the experiment on GFP-EBOV, the “effect of 24 hours pre-treatment of cells versus treatment during and after infection” value was “more effective than treatment during and after infection”.

The term inhibition denotes the share of the control response that was lost under treatment. Broadly, the IC50 is the concentration needed to halve the response being measured.
